What was measured:
[1] = system: APRT; experiment: Effect of selection media on wild type, APRT-RNAi and APRT knock out cells (survival / cell death); format: cell-based; details: for Effect of selection medium on cells: RNAi: cells expressing RNAi-constructs directed against APRT; for Effect of selection medium on cells: knock out: cells with APRT inactivated on the chromosomal level; for Effect of selection medium on cells: wild type: gene APRT; for all read-outs here: key: Survival of the cells in the respective selective conditions is marked +; cell death in the respective selective condition is marked −
[2] = system: DHFR
[3] = system: thymidine kinase; experiment: Effect of selection media on wild type, thymidine kinase-RNAi and thymidine kinase knock out cells (survival / cell death); format: cell-based; details: for Effect of selection medium on cells: RNAi: cells expressing RNAi-constructs directed against thymidine kinase; for Effect of selection medium on cells: knock out: cells with thymidine kinase inactivated on the chromosomal level; for Effect of selection medium on cells: wild type: gene thymidine kinase; for all read-outs here: key: Survival of the cells in the respective selective conditions is marked +; cell death in the respective selective condition is marked −
[4] = system: HPRT; experiment: Effect of selection media on wild type, HPRT-RNAi and HPRT knock out cells (survival / cell death); format: cell-based; details: for Effect of selection medium on cells: RNAi: cells expressing RNAi-constructs directed against HPRT; for Effect of selection medium on cells: knock out: cells with HPRT inactivated on the chromosomal level; for Effect of selection medium on cells: wild type: gene HPRT

Nc1ncnc2nn[nH]c12 [8-azaadenine]
Effect of selection medium on cells: RNAi [1]: + | Effect of selection medium on cells: knock out [1]: + | Effect of selection medium on cells: wild type [1]: −

CN(Cc1cnc2nc(N)nc(N)c2n1)c1ccc(C(=O)N[C@@H](CCC(=O)O)C(=O)O)cc1 [methotrexate]
Effect of selection medium on cells: RNAi ([2]; cells expressing RNAi-constructs directed against DHFR): − | Effect of selection medium on cells: knock out ([2]; cells with DHFR inactivated on the chromosomal level): − | Effect of selection medium on cells: wild type ([2]; wild type cells, gene DHFR): +

O=c1[nH]c(=O)n([C@H]2C[C@H](O)[C@@H](CO)O2)cc1C(F)(F)F [trifuorothymidine]
Effect of selection medium on cells: RNAi [3]: + | Effect of selection medium on cells: knock out [3]: + | Effect of selection medium on cells: wild type [3]: −

Nc1nc2c(nnn2[C@@H]2O[C@H](CO)[C@@H](O)[C@H]2O)c(=O)[nH]1 [8-azaguanosine]
Effect of selection medium on cells: RNAi [4]: + | Effect of selection medium on cells: knock out [4]: + | Effect of selection medium on cells: wild type [4]: −

Nc1nc2c(ncn2[C@@H]2O[C@H](CO)[C@@H](O)[C@H]2O)c(=S)[nH]1 [6-thioguanosine]
Effect of selection medium on cells: RNAi [4]: + | Effect of selection medium on cells: knock out [4]: + | Effect of selection medium on cells: wild type [4]: −

Nc1nc(F)nc2nc[nH]c12 [2-fluoroadenine]
Effect of selection medium on cells: RNAi [1]: + | Effect of selection medium on cells: knock out [1]: + | Effect of selection medium on cells: wild type [1]: −

Nc1nc(N)c2nc[nH]c2n1 [diaminopurine]
Effect of selection medium on cells: RNAi [1]: + | Effect of selection medium on cells: knock out [1]: + | Effect of selection medium on cells: wild type [1]: −

O=c1[nH]c(=O)n([C@H]2C[C@H](O)[C@@H](CO)O2)cc1Br [bromodesoxyuridine]
Effect of selection medium on cells: RNAi [3]: + | Effect of selection medium on cells: knock out [3]: + | Effect of selection medium on cells: wild type [3]: −

Source: patent publication US20080120733A1, “Rnai-Based Method for Selecting Transfected Eukaryotic Cells” (GBF-GESELLSCHAFT FUR BIOTECHNOLOGISCHE FORSCHUNG, priority 2004, published 2008)
